According to patent US20220089592A1, “IMIDAZO[1,2-A]PYRIDINYL DERIVATIVES AS IRAK4 INHIBITORS” (priority 2019, published 2022):

How the values were obtained:
IRAK4 [1] = molecular target: T1, IRAK4 (Homo sapiens, UniProt Q9NWZ3); experiment: 2-hour 10 μM ATP Biochemical Assay (MesoScale Detection format; IRAK4 phosphorylation of biotin labeled IRAK1 activation loop peptide); conditions: IRAK4 MSD BIOCHEMICAL (10 μM ATP) IC50 (μM), 1 nM IRAK4, 2 hours
T1 sequence (Q9NWZ3 1-460): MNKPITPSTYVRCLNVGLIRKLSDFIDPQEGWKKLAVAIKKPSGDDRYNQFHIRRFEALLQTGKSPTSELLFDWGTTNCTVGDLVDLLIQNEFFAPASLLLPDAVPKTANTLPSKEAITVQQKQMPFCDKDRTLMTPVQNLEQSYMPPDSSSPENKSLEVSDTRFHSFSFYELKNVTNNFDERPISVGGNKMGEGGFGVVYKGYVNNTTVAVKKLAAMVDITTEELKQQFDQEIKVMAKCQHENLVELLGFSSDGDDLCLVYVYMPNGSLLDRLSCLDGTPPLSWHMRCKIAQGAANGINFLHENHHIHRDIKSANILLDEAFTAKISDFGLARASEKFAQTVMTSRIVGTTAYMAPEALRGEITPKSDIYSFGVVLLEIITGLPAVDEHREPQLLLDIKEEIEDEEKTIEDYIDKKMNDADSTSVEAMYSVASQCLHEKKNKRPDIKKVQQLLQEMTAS
Summary of the method: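 Electrochemiluminescent MSD readout: after streptavidin capture, phosphothreonine on the biotin-labelled IRAK1 activation-loop peptide detected by rabbit antibody and Sulfo-Tag secondary. Phosphorylation ran 2 h with 10 μM ATP before EDTA quench.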

IRAK4 [2] = molecular target: T1, IRAK4; experiment: 2-hour 1 mM ATP IRAK4 Biochemical assay (as above, but with 100 pM IRAK4 and 1 mM ATP); conditions: IRAK4 MSD BIOCHEMICAL (1 mM ATP) IC50 (μM), 100 pM IRAK4, 2 hours
Summary of the method: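 MSD electrochemiluminescence read-out: biotinylated peptide product bound to streptavidin plates, probed with anti-P-Thr rabbit antibody and Sulfo-Tag goat anti-rabbit. Kinase reaction used 1 mM ATP and 100 pM IRAK4 over 2 hours before EDTA quench.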

Row | SMILES | IC50 (IRAK4 [1]) [µM] | IC50 (IRAK4 [2]) [µM]
1 | CCOc1cc2nc(COc3ccccn3)cn2cc1NC(=O)c1cccc(C(F)F)n1 [Example 86, 6-(difluoromethyl)-N-(7-ethoxy-2-((pyridin-2-yloxy)methyl)imidazo[1,2-a]pyridin-6-yl)picolinamide] | 0.006 | 0.008
2 | CCOc1cc2nc(C3CC3)cn2cc1NC(=O)c1cccc(N2CCOCC2)n1 [Example 131, N-(2-cyclopropyl-7-ethoxyimidazo[1,2-a]pyridin-6-yl)-6-morpholinopicolinamide] | 0.005 | 0.044
3 | CCOc1cc2nc(C(=O)N(C)C)cn2cc1NC(=O)c1cccc(C(F)F)n1 [Example 108, 6-(6-(difluoromethyl)picolinamido)-7-ethoxy-N,N-dimethylimidazo[1,2-a]pyridine-2-carboxamide] | 0.011 | 0.025
4 | CCOc1cc2nc(Cn3ccccc3=O)cn2cc1NC(=O)c1cccc(C(F)F)n1 [Example 87, 6-(difluoromethyl)-N-(7-ethoxy-2-((2-oxopyridin-1(2H)-yl)methyl)imidazo[1,2-a]pyridin-6-yl)picolinamide] | 0.004 | 0.017
5 | CCOc1cc2nc(CC3CCOC3)cn2cc1NC(=O)c1ccn(C(C)C)n1 (centres unmarked) [Example 122, N-(7-ethoxy-2-((tetrahydrofuran-3-yl)methyl)imidazo[1,2-a]pyridin-6-yl)-1-isopropyl-1H-pyrazole-3-carboxamide] | 0.008 | 0.003
6 | CCOc1cc2nc(CCOC)cn2cc1NC(=O)c1cccc(C(F)F)n1 [Example 13, 6-(difluoromethyl)-N-(7-ethoxy-2-(2-methoxyethyl)imidazo[1,2-a]pyridin-6-yl)picolinamide] | 0.002 | 0.003
7 | CCOc1cc2nc(C3CC3)cn2cc1NC(=O)c1cccc(C(F)F)n1 [Example 3, N-(2-cyclopropyl-7-ethoxyimidazo[1,2-a]pyridin-6-yl)-6-(difluoromethyl)picolinamide] | 0.006 | 0.009
8 | CCOc1cc2nc([C@H]3C[C@@H](OC)C3)cn2cc1NC(=O)c1cccc(C(F)F)n1 [Example 115, 6-(difluoromethyl)-N-(7-ethoxy-2-((1s,3s)-3-methoxycyclobutyl)imidazo[1,2-a]pyridin-6-yl)picolinamide] | 0.001 | 0.002
9 | CCOCc1cn2cc(NC(=O)c3cccc(C(F)(F)F)n3)c(OCC)cc2n1 [Example 55, N-(7-ethoxy-2-(ethoxymethyl)imidazo[1,2-a]pyridin-6-yl)-6-(trifluoromethyl)picolinamide] | 0.003 | 0.015
10 | CCOc1cc2nc(CN3CCCC3=O)cn2cc1NC(=O)c1cccc(C(F)F)n1 [Example 85, 6-(difluoromethyl)-N-(7-ethoxy-2-((2-oxopyrrolidin-1-yl)methyl)imidazo[1,2-a]pyridin-6-yl)picolinamide] | 0.002 | 0.012
11 | CCOc1cc2nc(C3CN(C(C)=O)C3)cn2cc1NC(=O)c1cccc(C(F)(F)F)n1 [Example 68, N-(2-(1-acetylazetidin-3-yl)-7-ethoxyimidazo[1,2-a]pyridin-6-yl)-6-(trifluoromethyl)picolinamide] | 0.001 | 0.001
12 | CCOc1cc2nc([C@@H](F)[C@@H]3CCOC3)cn2cc1NC(=O)c1cccc(C(F)(F)F)n1 (single isomer, unassigned) [Example 145] | 0.001 | 0.002
13 | COc1cc2nc(C3CC3)cn2cc1NC(=O)c1cccc(C(F)F)n1 [Example 4, N-(2-cyclopropyl-7-methoxyimidazo[1,2-a]pyridin-6-yl)-6-(difluoromethyl)picolinamide] | 0.004 | 0.015
14 | CCOc1cc2nc(C3(O)CCOCC3)cn2cc1NC(=O)c1cccc(C(F)F)n1 [Example 90, 6-(difluoromethyl)-N-(7-ethoxy-2-(4-hydroxytetrahydro-2H-pyran-4-yl)imidazo[1,2-a]pyridin-6-yl)picolinamide] | 0.002 | 0.004
15 | CCOc1cc2nc(CC3CCOC3)cn2cc1NC(=O)c1ccn(C(F)F)n1 (centres unmarked) [Example 124, 1-(difluoromethyl)-N-(7-ethoxy-2-((tetrahydrofuran-3-yl)methyl)imidazo[1,2-a]pyridin-6-yl)-1H-pyrazole-3-carboxamide] | 0.002 | 0.002
16 | CCOc1cc2nc(C(C)(C)O)cn2cc1NC(=O)c1cccc(C(F)(F)F)n1 [Example 19, N-(7-ethoxy-2-(2-hydroxypropan-2-yl)imidazo[1,2-a]pyridin-6-yl)-6-(trifluoromethyl)picolinamide] | 0.009 | 0.044

Other lines, results leading:

Row | IC50 (IRAK4 [1]) [µM] | IC50 (IRAK4 [2]) [µM] | SMILES
17 | 0.007 | 0.023 | CCOc1cc2nc(C3CCOCC3)cn2cc1NC(=O)c1ccccn1 [Example 216, N-(7-ethoxy-2-(tetrahydro-2H-pyran-4-yl)imidazo[1,2-a]pyridin-6-yl)picolinamide]
18 | 0.002 | 0.003 | CCOc1cc2nc(C(F)(F)CCOC)cn2cc1NC(=O)c1cccc(C(F)F)n1 [Example 149, N-(2-(1,1-difluoro-3-methoxypropyl)-7-ethoxyimidazo[1,2-a]pyridin-6-yl)-6-(difluoromethyl)picolinamide]
19 | 0.001 | 0.002 | COc1cc(NC(=O)c2cccc(C(F)F)n2)cn2cc(C3CCOC(C)(C)C3)nc12 (centres unmarked) [Example 510, 6-(difluoromethyl)-N-(2-(2,2-dimethyltetrahydro-2H-pyran-4-yl)-8-methoxyimidazo[1,2-a]pyridin-6-yl)picolinamide 2,2,2-trifluoroacetate]
20 | 0.002 | 0.01 | CCOc1cc2nc(C3CCOCC3)cn2cc1NC(=O)c1cccc(OC2CC2)n1 [Example 361, 6-cyclopropoxy-N-(7-ethoxy-2-(tetrahydro-2H-pyran-4-yl)imidazo[1,2-a]pyridin-6-yl)picolinamide]
21 | 0.001 | 0.001 | CCOc1cc2nc(C3CCCC(=O)N3C)cn2cc1NC(=O)c1cccc(C(F)F)n1 (centres unmarked) [Example 246, 6-(difluoromethyl)-N-(7-ethoxy-2-(1-methyl-6-oxopiperidin-2-yl)imidazo[1,2-a]pyridin-6-yl)picolinamide]
22 | 0.001 | 0.007 | CCOc1cc2nc(C3CCOCC3)cn2cc1NC(=O)c1csc(C(F)(F)F)n1 [Example 231, N-(7-ethoxy-2-(tetrahydro-2H-pyran-4-yl)imidazo[1,2-a]pyridin-6-yl)-2-(trifluoromethyl)thiazole-4-carboxamide]
23 | 0.001 | 0.002 | CCOc1cc2nc(C3(C#N)CCOCC3)cn2cc1NC(=O)c1cccc(C(F)F)n1 [Example 160, N-(2-(4-cyanotetrahydro-2H-pyran-4-yl)-7-ethoxyimidazo[1,2-a]pyridin-6-yl)-6-(difluoromethyl)picolinamide]
24 | 0.001 | 0.002 | CCOc1cc2nc(C3CCSC3)cn2cc1NC(=O)c1cccc(C(F)F)n1 (centres unmarked) [Example 150, 6-(difluoromethyl)-N-(7-ethoxy-2-(tetrahydrothiophen-3-yl)imidazo[1,2-a]pyridin-6-yl)picolinamide]
25 | 0.002 | 0.006 | CCOc1cc2nc(C3CCOCC3)cn2cc1NC(=O)c1cccc(C#N)n1 [Example 365, 6-cyano-N-(7-ethoxy-2-(tetrahydro-2H-pyran-4-yl)imidazo[1,2-a]pyridin-6-yl)picolinamide]
26 | 0.011 | 0.051 | CCOc1nc(NC(=O)c2cccc(OC)n2)cn2cc(C3CCOCC3)nc12 [Example 147, N-(8-ethoxy-2-(tetrahydro-2H-pyran-4-yl)imidazo[1,2-a]pyrazin-6-yl)-6-methoxypicolinamide]
27 | 0.015 | 0.033 | O=C(Nc1ccc2nc(C3CCOCC3)cn2c1)c1cccc(C(F)F)n1 [Example 356, 6-(difluoromethyl)-N-(2-(tetrahydro-2H-pyran-4-yl)imidazo[1,2-a]pyridin-6-yl)picolinamide]
28 | 0.015 | 0.038 | CCOc1cc2nc(C3CCOCC3)cn2cc1NC(=O)c1cc(F)n(C)n1 [Example 210, N-(7-ethoxy-2-(tetrahydro-2H-pyran-4-yl)imidazo[1,2-a]pyridin-6-yl)-5-fluoro-1-methyl-1H-pyrazole-3-carboxamide]
29 | 0.002 | 0.003 | CCOc1cc2nc(C3CCOCC3)cn2cc1NC(=O)c1cccc(C(F)CF)n1 (centres unmarked) [Example 239, 6-(1,2-difluoroethyl)-N-(7-ethoxy-2-(tetrahydro-2H-pyran-4-yl)imidazo[1,2-a]pyridin-6-yl)picolinamide]
30 | 0.011 | 0.049 | COCCCc1cn2cc(NC(=O)c3cccc(C(F)F)n3)ccc2n1 [Example 234, 6-(difluoromethyl)-N-(2-(3-methoxypropyl)imidazo[1,2-a]pyridin-6-yl)picolinamide]
31 | 0.002 | 0.005 | CCOc1cc2nc([C@@H]3C[C@H]3F)cn2cc1NC(=O)c1cccc(C(F)F)n1 (stereo in doubt) [Example 254, 6-(difluoromethyl)-N-(7-ethoxy-2-((1S*, 2R*)-2-fluorocyclopropyl)imidazo[1,2-a]pyridin-6-yl)picolinamide]
